According to publication PMC7738869, “A novel STAT3 inhibitor W2014-S regresses human non-small cell lung cancer xenografts and sensitizes EGFR-TKI acquired resistance” (Theranostics, 2021):
“And” between values parts separate entries of the source, which are not always exact repeats. Equal values may be shown once. Read-outs that look alike come from different tables or passages of the source.

Key:
Pharmacokinetic study = type: in vivo, SD rats
Method: W2014-S was given to SD rats (male, 230-260g, n = 6) by gavage and intravenous administration. The rats were fasted for 12 h before administration and remained fasting for 2 h. For oral gavage, W2014-S was dissolved in DMSO/0.5% HPMC (5/95, v/v/), and W2014-S was dissolved in DMSO/EtOH/PEG300/0.9% NaCl (5/5/40/50, v/v/v/v) for intravenous administration. The pharmacokinetic (PK) profiles were next evaluated in SD rats.

A549 cells = test: Wound healing assay for migration; type: cell-based, human; details: 48 h
Method: The motility of cells was measured by wound healing assay. Cells were seeded into 6-well plates and cultured to 90-100% confluent after 24 h. Wounds were made in each well of 6-well plates using pipette tips. […] The migration of cells was visualized under a microscope (4 ×, Nikon, Japan) and photographed in different time points (0 and 48 h).

[1] = rat, i.v. 3 mg/kg, individual animals 4-6, 3 mg/kg
[2] = rat, p.o. 10 mg/kg, individual animals 1-3, 10 mg/kg

C[C@H](Oc1ccc(-c2nc3nc(C4=CCN(C(=O)OC(C)(C)C)CC4)ccc3[nH]2)cc1)c1ccccc1 [W2014-S]
half-life (Pharmacokinetic study; male, SD, rat, plasma, po, 10 mg/kg, p.o. 10 mg/kg, individual animals 1-3): 72.6 min
AUC(0-inf) (Pharmacokinetic study; male, SD, rat, plasma, po, 10 mg/kg, rat, p.o. 10 mg/kg, individual animals 1-3, read-out: AUCINF_obs): 57.9 ng·h/mL
AUC(0-t) (Pharmacokinetic study; male, SD, rat, plasma, po, 10 mg/kg, rat, p.o. 10 mg/kg, individual animals 1-3, read-out: AUClast): 54.6 ng·h/mL
half-life (Pharmacokinetic study; male, Sprague-Dawley (SD), rat, plasma, iv, 3 mg/kg, SD rats, 3 mg/kg iv, mean): 816 min
AUC(0-inf) (Pharmacokinetic study; male, Sprague-Dawley (SD), rat, plasma, iv, 3 mg/kg, SD rats, 3 mg/kg iv, mean, read-out: AUC0-inf): 244 ng·h/mL
AUC(0-t) (Pharmacokinetic study; male, Sprague-Dawley (SD), rat, plasma, iv, 3 mg/kg, SD rats, 3 mg/kg iv, mean, read-out: AUC0-last): 222 ng·h/mL
clearance (Pharmacokinetic study; male, Sprague-Dawley (SD), rat, plasma, iv, 3 mg/kg, SD rats, 3 mg/kg iv, mean, read-out: CL): 206 mL/min/kg
half-life (Pharmacokinetic study; male, Sprague-Dawley (SD), rat, plasma, po, 10 mg/kg, SD rats, 10 mg/kg po, mean): 87.6 min
AUC(0-inf) (Pharmacokinetic study; male, Sprague-Dawley (SD), rat, plasma, po, 10 mg/kg, SD rats, 10 mg/kg po, mean, read-out: AUC0-inf): 56.1 ng·h/mL
AUC(0-t) (Pharmacokinetic study; male, Sprague-Dawley (SD), rat, plasma, po, 10 mg/kg, SD rats, 10 mg/kg po, mean, read-out: AUC0-last): 54.6 ng·h/mL
Cmax (Pharmacokinetic study; male, Sprague-Dawley (SD), rat, plasma, po, 10 mg/kg, SD rats, 10 mg/kg po, mean, read-out: Cmax): 23.8 ng/mL
Tmax (Pharmacokinetic study; male, Sprague-Dawley (SD), rat, plasma, po, 10 mg/kg, SD rats, 10 mg/kg po, mean, read-out: Tmax): 1.67 h
MRT inf (Pharmacokinetic study; male, Sprague-Dawley (SD), rat, plasma, po, 10 mg/kg, rat, p.o. 10 mg/kg, mean, read-out: MRTINF_obs): 2.61 h
Vd (Pharmacokinetic study; male, Sprague-Dawley (SD), rat, plasma, SD rats, 3 mg/kg iv, mean, read-out: Vss): 77.5 L/kg
bioavailability (Pharmacokinetic study; male, Sprague-Dawley (SD), rat, plasma, SD rats, 10 mg/kg po vs 3 mg/kg iv): 7.39%
Concentration in rat plasma, individual animals 1-3 (Pharmacokinetic study; p.o. 10 mg/kg, 0.25 h, 10 mg/kg): 29.9 ng/mL and 7.10 ng/mL and 21.9 ng/mL
Concentration in rat plasma, individual animals 1-3 (Pharmacokinetic study; p.o. 10 mg/kg, 0.50 h, 10 mg/kg): 10.0 ng/mL and 27.4 ng/mL and 30.0 ng/mL
Concentration in rat plasma, individual animals 1-3 (Pharmacokinetic study; p.o. 10 mg/kg, 1.00 h, 10 mg/kg): 8.00 ng/mL and 18.7 ng/mL and 21.7 ng/mL
Concentration in rat plasma, individual animals 1-3 (Pharmacokinetic study; p.o. 10 mg/kg, 2.00 h, 10 mg/kg): 9.40 ng/mL and 6.60 ng/mL
Concentration in rat plasma, individual animals 1-3 (Pharmacokinetic study; p.o. 10 mg/kg, 4.00 h, 10 mg/kg): 13.9 ng/mL and 4.80 ng/mL (2×)
Concentration in rat plasma, individual animals 1-3 (Pharmacokinetic study; p.o. 10 mg/kg, 8.00 h, 10 mg/kg): 1.20 ng/mL and 0.400 ng/mL and 0.300 ng/mL
Concentration in rat plasma, individual animals 1-3 (Pharmacokinetic study; p.o. 10 mg/kg, 24.0 h, BLQ: Below LLOQ (LLOQ = 0.3 ng/mL)): BLQ
AUCINF_obs (Pharmacokinetic study; [1]): 247 ng·h/mL and 255 ng·h/mL
AUClast (Pharmacokinetic study; [1]): 220 ng·h/mL and 236 ng·h/mL
CL_obs (Pharmacokinetic study; [1]): 202 mL/min/kg and 196 mL/min/kg
MRTINF_obs (Pharmacokinetic study; [1]): 7.48 h and 5.59 h
T1/2 (Pharmacokinetic study; [1]): 14.2 h and 11.2 h
Vss_obs (Pharmacokinetic study; [1]): 76143 mL/kg and 90763 mL/kg and 65720 mL/kg
Vss_obs (Pharmacokinetic study; rat, i.v. 3 mg/kg, mean): 77542 mL/kg
AUCINF_obs (Pharmacokinetic study; [2]): 55.3 ng·h/mL and 55.0 ng·h/mL
AUClast (Pharmacokinetic study; [2]): 54.5 ng·h/mL
Cmax (Pharmacokinetic study; [2]): 13.9 ng/mL and 27.4 ng/mL and 30.0 ng/mL
MRTINF_obs (Pharmacokinetic study; [2]): 3.89 h and 2.08 h and 1.87 h
T1/2 (Pharmacokinetic study; [2]): 1.88 h and 1.29 h
Tmax (Pharmacokinetic study; [2]): 4.00 h and 0.50 h (2×)
cell migration (A549 cells): remarkably inhibited the migration
